Measurements taken from patent US20240181015A1, “EFFECT OF GHRH ANTAGONISTS IN DIABETES AND OBESITY” (AUGUSTA UNIVERSITY RESEARCH INSTITUTE, INC., priority 2021, published 2024).
Ends that are not written are not given here.

Experiments:
[1] = tested on: diet-induced obesity (DIO) C57BL/6 mice; test: Fasting triglyceride levels in diet-induced obesity (DIO) C57BL/6 mice; format: in vivo; conditions: HFD 24 weeks; 25 μg/kg/day subcutaneous for last 12 weeks; vs untreated HFD mice
Description: C57BL/6 mice, 12 weeks of age were fed on a normal control diet (CD) or diet supplemented with high levels of fat (HFD) for 12 weeks, before treatment with GHRH antagonist, AVR-352 (25 μg/kg/day, subcutaneous) or vehicle for 12 weeks. Total triglycerides in plasma (TG ELISA kit, MyBioSource) were measured.

[2] = tested on: wild type mice fed on high fat diet (HFD); test: Postprandial triglyceride plasma levels after oral lipid loading in high fat diet fed mice; format: in vivo; conditions: HFD 16 weeks, 25 μg/kg/day subcutaneous every other day for last 4 weeks, up to 2 hours after oral lipid loading
Excerpt: Both 8-week old wild type mice with intact ghrhr gene, and ghrhr conditional knock out mice were fed a high fat or control diet for 16 weeks. The effect of selective deletion of the ghrhr gene in the small intestine versus the effect of the GHRH antagonist AVR-352 or vehicle treatment for the last 4 weeks in wild type mice when both groups were fed a high fat diet, on fasting and postprandial triglyceride plasma levels were compared. The Ghrhr floxed mice using embryonic ES Cells was generated (International Mouse Phenotyping Consortium—IMPC). The ES cell clones were targeted with a floxed allele of Ghrhr with exons 2-5 flanked by loxP sites, and were injected into C57BL/6-Albino blastocysts for chimera production and generation of Ghrhr flox/wt mice (Animal Models Core, UNC, Project ID: Ex231). The colony was expanded and obtained the homozygous Ghrhr flox/flox mice, which were cross bred with mice expressing Cre recombinase in the small intestine (B6.Cg-Tg(Vil1-cre) 1000 Gum/J, Jackson Laboratories). Recombinase activity results in the deletion of loxP flanked targets in the intestine.
Mice with the deletion of GHRH receptor in small intestine epithelium (HOMO) were fed on high fat diet (HFD) or control diet (Ctrl diet) for 16 weeks. AVR-352 (25 μg/kg/day, subcutaneous, every other day), was given to wild type mice after 12 weeks of high fat diet (HFD) for 4 weeks.

[3] = tested on: wild type mice fed on high fat diet (HFD); test: ApoB-48 and MTTP protein content in scrapped small intestine epithelium of HFD mice; format: in vivo; conditions: 25 μg/kg/day subcutaneous every other day for 4 weeks, vs untreated HFD mice
Description: The protein expression of microsomal triglyceride transfer protein (MTTP), an enzyme involved in ApoB-48 lipoprotein assembly, in protein extracts isolated from scrapped epithelium of whole small intestine of mice were evaluated. Densitometric analysis (optical density O.D., fold over Ctrl diet fed mice) of ApoB-48 (FIG. 11B) and MTTP ([…]) corrected by protein loading (vinculin) (FIG. 11A) was performed. Mice fed on HFD were treated with GHRH antagonist AVR-352 (Antago, 25 μg/kg/day, subcutaneous, every other day for 4 weeks).

[4] = tested on: C57BL/6 wild type male mice fed on high fat diet (HFD); test: CLAMS (body weight gain, activity-ambient) in HFD mice treated with AVR-352; format: in vivo; conditions: HFD 12 weeks, then 25 μg/kg/day subcutaneous for 4 weeks, vs untreated HFD mice
Description: 8 to 10-Week old C57BL/6 wild type male mice were fed on a high fat diet (HFD) for 12-weeks. Mice were then treated with the GHRH antagonist AVR-352 (25 μg/kg/day, subcutaneous) or vehicle for 4-weeks. At the end of treatment, mice were placed individually in metabolic (CLAMS) system. Body weight was recorded at beginning of treatment and at time of CLAMS after 4-weeks of treatment with the GHRH antagonist AVR-352 or vehicle. Activity-ambient (counts/day) was also measured.

[5] = tested on: human small intestine epithelial cells (hulECs); test: ApoB-48 secretion by huIEC loaded with oleic acid; format: cell-based
Description: FIG. 14 is a bar graph showing confluent monolayers of human small intestine epithelial cells (hulECs, ATCC) were cultured in 6-well plates and loaded or not with oleic acid after treatments. ApoB-48 was measured in culture supernatants. GHRH agonist JI-34 (1 μM, 1 h) impaired the actions of the GLP-1 receptor agonist exendin 4 (Ex-4, 10 nM, 2 h) on reducing the ApoB48 secretion upon loading hulEC with oleic acid (0.5 mM, 3 h). This effect was completely blunted by co-treatment of cells with the GHRH antagonist MIA-602 (1 μM, 1 h).
FIG. 15 is a bar graph showing confluent monolayers of human small intestine epithelial cells (hulECs, ATCC) were cultured in 6-well plates and loaded or not with oleic acid after treatments. ApoB-48 was measured in culture supernatants.
Confluent monolayers of human small intestine epithelial cells (hulECs, ATCC) were cultured in 6-well plates and were either loaded with oleic acid or not loaded with oleic acid after treatment. ApoB-48 was measured in culture supernatants (MyBioSource).

db/db mice [6] = test: MTTP activity and ApoB-48 protein expression in jejunum protein extracts of db/db mice; format: in vivo; conditions: protein extracts from jejunum of db/db mice, 25 μg/kg/day s.c.
Description: Protein extracts were isolated from jejunum of diabetic (db/db) mice and lean control mice. Microsomal triglyceride transfer protein (MTTP) activity (pmole/μg protein/hour) was measured in protein extracts from diabetic (db/db) mice versus lean control mice treated or not with GHRH antagonist MIA-602. Further, ApoB-48 protein expression determined by densitometric analysis (optical density, O.D.) of ApoB-48 corrected by protein loading (vinculin) was also performed in protein extracts from diabetic (db/db) mice versus lean control mice treated or not with GHRH antagonist MIA-602.

STZ-rats = STZ-rats (T1D model); U.S. Pat. No. 10,201,588; cited from earlier work
[7] = tested on: C57BL/6 male mice fed on high fat diet (HFD); test: CLAMS (food intake, body weight gain, activity-ambient, RER) in HFD mice treated with MIA-602; format: in vivo; conditions: HFD 24 weeks, 25 μg/kg/day subcutaneous for last 12 weeks
Description: 12-Week old C57BL/6 male mice were fed on a high fat diet (HFD) or control diet (CD) for 12-weeks. Mice fed on HFD were treated with the GHRH antagonist MIA-602 (25 μg/kg/day, subcutaneous) or vehicle for 12-weeks. At the end of treatment, mice were placed individually in metabolic (CLAMS) system and a) food intake, b) body weight gain, c) activity-ambient, and d) respiratory exchange ratio were measured.

[8] = tested on: rat small intestine epithelial cells (IEC); conditions: U.S. Pat. No. 10,201,588; cited from earlier work
db/db mice [9] = test: Fasting blood glucose, HbA1c and glucagon in db/db mice; format: in vivo; conditions: 25 μg/kg/day subcutaneous for 12 weeks, vs untreated db/db mice
Description: Male db/db mice, 12 weeks of age were treated with the GHRH antagonist MIA-602 (25 μg/kg/day, subcutaneous, n=6) or vehicle (untreated, n=6/group) for 12 weeks. Samples were obtained from tail bleeding to determine (A) Fasting blood glucose (AlphaTRAK), (B) HbA1c (Crystal Chem) and (C) Glucagon.

db/db mice [10] = test: Fasting plasma triglycerides, ApoB-48 and VLDL (ELISA) in db/db mice treated with MIA-602; format: in vivo; conditions: fasting state, 25 μg/kg/day subcutaneous every other day for 4 weeks, vs untreated db/db mice
Description: Obese 20-week old male diabetic (db/db) mice were treated with the GHRH antagonist MIA-602 (25 μg/kg/day, subcutaneous, every other day) or vehicle (untreated, n=6/group) for 4 weeks. Total triglycerides (mg/dl), ApoB-48-containing lipoproteins (ApoB-48, ng/ml), and very low density lipoprotein (VLDL, mg/dl) in plasma obtained from mice in the fasting state were measured by ELISA (MyBioSource).
Given the high incidence of T2D and obesity and its association with CVD, experiments were carried out to investigate whether GHRH receptor antagonist MIA-602 administered subcutaneous suppresses elevation of TRL in mice homozygous for the diabetes spontaneous mutation Leprdb-BKS db (db/db), a valid model of human T2D/obesity. Heterozygous for Leprdb were used as lean controls.
GHRH antagonist MIA-602 (25 μg/kg/day, subcutaneous, every other day), was given to a sub-group of 20 weeks old db/db mice for 4 weeks. FIGS. 2A-2C show the effect of the treatment with MIA-602 on triglycerides, ApoB-48, and very low density lipoprotein (VLDL) levels, respectively, in db/db mice.

## 5FPhAC-Ada-Tyr-DArg-Asp-Ala-Ile-5FPhe-Thr-Ala-Har-Tyr(Me)-Arg-Lys-Val-Leu-Abu-Gln-Leu-Ser-Ala-Arg-Lys-Leu-Leu-Gln-Asp-Ile-Nle-DArg-Har-Ada-NH2 [AVR-352]
[1]
  fasting total triglycerides in plasma: significantly reduced
[2]
  postprandial increase of triglyceride plasma levels: significantly blunted
[3]
  ApoB-48 protein content in small intestine epithelium: significant reduction
  MTTP protein content in small intestine epithelium: without significantly affecting
[4]; dark cycle
  daily activity-ambient, dark cycle: significantly higher
[4]; light cycle
  daily activity-ambient, light cycle: no significant differences
[4]
  body weight gain (%): significantly lower

## GHRH: native growth hormone releasing hormone, the naturally occurring ligand of GHRH receptor (YADAIFTNSYRKVLGQLSARKLLQDIMSRQQGESNQERGARARL; ends and bridges not checked; UniProt P01286 32-75, looked up) [reference compound]
[5]; different concentrations of native GHRH
  ApoB-48 released in the culture medium, different concentrations: increased levels of ApoB-48 were released in the culture medium in a dose-dependent manner

## Tyr-Ala-Asp-Ala-Ile^5-Phe-Thr-Asn-Ser-Tyr^10-Arg-Lys-Val-Leu-Gly^15-Gln-Leu-Ser-Ala-Arg^20-Lys-Leu-Leu-Gln-Asp^25-Ile-Met-Ser-Arg^29-NH2 [MIA-602]
db/db mice [6]
  microsomal triglyceride transfer protein (MTTP) activity: not associated with significant changes
db/db mice [6]; vs untreated
  ApoB-48 levels (densitometry, corrected by vinculin): significantly lower levels
STZ-rats
  ApoB-48 lipoproteins in STZ-rats: reduced
[7]; vs non-treated mice
  respiratory exchange ratio (RER): slightly but significantly lower
[7]; vs untreated HFD mice
  body weight gain: significant reduction
  daily activity-ambient: significant increase
  food intake: No changes
[8]
  ApoB-48 lipoproteins in rat IEC in vitro: reduced
[5]; MIA-602 1 μM, 1 h co-treatment with JI-34 1 μM and Ex-4 10 nM
  impaired signaling of Ex-4 in the presence of JI-34 (ApoB-48 secretion): completely restored
db/db mice [9]
  fasting blood glucose level: modest but significant reduction
  glucagon levels: significant reduction
  hemoglobin A1c (HbA1c) level: modest but significant reduction
db/db mice [10]
  ApoB-48-containing lipoproteins in plasma: significantly reduced
  total triglycerides in plasma: significantly reduced
  very low density lipoprotein (VLDL) in plasma: significantly reduced
